How the values were obtained:
Assay type in all cases: in vivo
[1] = system: ragweed (common ragweed, Ambrosia elatior); assay: Test A postemergence application, visual injury rating; details: Ambrosia artemisiifolia, post-emergence, 240 h, 0 to 100 scale, 0 no effect, 100 complete control, read-out: Ragweed plant response rating
Method in brief: (§1)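 Seeds sown in a loam soil–sand blend received a directed preemergence soil spray of test chemical in a non-phytotoxic solvent mixture with surfactant. Postemergence plants were sprayed at 2 to 10 cm, one- to two-leaf stage. After approximately 10 d in greenhouse, injury was visually rated 0 (no effect) to 100 (complete control) against untreated controls.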

[2] = system: pigweed (Amaranthus retroflexus); assay: as above; details: Amaranthus retroflexus, post-emergence, 240 h, 0 to 100 scale, 0 no effect, 100 complete control, read-out: Pigweed plant response rating
Method in brief: as §1

[3] = system: wheat (Triticum aestivum); assay: as above; details: Triticum aestivum, post-emergence, 240 h, 0 to 100 scale, 0 no effect, 100 complete control, read-out: Wheat plant response rating
Method in brief: as §1

[4] = system: blackgrass (Alopecurus myosuroides); assay: as above; details: Alopecurus myosuroides, post-emergence, 240 h, 0 to 100 scale, 0 no effect, 100 complete control, read-out: Blackgrass plant response rating
Method in brief: as §1

kochia (Kochia scoparia) [5] = assay: as above; details: Bassia scoparia, post-emergence, 240 h, 0 to 100 scale, 0 no effect, 100 complete control, read-out: Kochia plant response rating
Method in brief: as §1

[6] = system: ryegrass, It. (Italian ryegrass, Lolium multiflorum); assay: as above; details: Lolium multiflorum, post-emergence, 240 h, 0 to 100 scale, 0 no effect, 100 complete control, read-out: Ryegrass, It. plant response rating
Method in brief: as §1

[7] = system: foxtail, giant (giant foxtail, Setaria faberii); assay: as above; details: Setaria faberi, post-emergence, 240 h, 0 to 100 scale, 0 no effect, 100 complete control, read-out: Foxtail, Giant plant response rating
Method in brief: as §1

corn (Zea mays) = assay: as above; details: Zea mays, post-emergence, 240 h, 0 to 100 scale, 0 no effect, 100 complete control, read-out: Corn plant response rating
Method in brief: as §1

[8] = system: galium (catchweed bedstraw, Galium aparine); assay: as above; details: Galium, post-emergence, 240 h, 0 to 100 scale, 0 no effect, 100 complete control, read-out: Galium plant response rating
Method in brief: as §1

[9] = system: barnyardgrass (Echinochloa crus-galli); assay: as above; details: Echinochloa crus-galli, post-emergence, 240 h, 0 to 100 scale, 0 no effect, 100 complete control, read-out: Barnyardgrass plant response rating
Method in brief: as §1

[10] = system: ragweed (common ragweed, Ambrosia elatior); assay: Test A preemergence, directed soil spray, visual injury rating; details: Ambrosia artemisiifolia, pre-emergence, 240 h, 0 is no effect, 100 is complete control, read-out: Plant response rating (0 to 100 scale), Ragweed
Method in brief: as §1

[11] = system: pigweed (Amaranthus retroflexus); assay: as above; details: Amaranthus retroflexus, pre-emergence, 240 h, 0 is no effect, 100 is complete control, read-out: Plant response rating (0 to 100 scale), Pigweed
Method in brief: as §1

kochia (Kochia scoparia) [12] = assay: as above; details: Bassia scoparia, pre-emergence, 240 h, 0 is no effect, 100 is complete control, read-out: Plant response rating (0 to 100 scale), Kochia
Method in brief: as §1

[13] = system: ryegrass, It. (Italian ryegrass, Lolium multiflorum); assay: as above; details: Lolium multiflorum, pre-emergence, 240 h, 0 is no effect, 100 is complete control, read-out: Plant response rating (0 to 100 scale), Ryegrass, It.
Method in brief: as §1

[14] = system: foxtail, giant (giant foxtail, Setaria faberii); assay: as above; details: Setaria faberi, pre-emergence, 240 h, 0 is no effect, 100 is complete control, read-out: Plant response rating (0 to 100 scale), Foxtail, Giant
Method in brief: as §1

[15] = system: barnyardgrass (Echinochloa crus-galli); assay: as above; details: Echinochloa crus-galli, pre-emergence, 240 h, 0 is no effect, 100 is complete control, read-out: Plant response rating (0 to 100 scale), Barnyardgrass
Method in brief: as §1

rice (Oryza sativa) = assay: Test B flooded paddy test, visual rating; details: Oryza sativa, 360 h; Flood, 250 g ai/ha, applied to paddy water, rated after 13 to 15 d; read-out: Rice plant response rating (0 to 100 scale, 0 is no effect, 100 is complete control)
Method in brief: (§2)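 Plants at the 2-leaf stage were flooded to 3 cm above soil, and test compounds were applied directly into the paddy water, which was held at that depth throughout. After 13 to 15 d in a greenhouse, injury was rated visually against untreated controls on a 0–100 scale (0 no effect, 100 complete control).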

[16] = system: ducksalad (Heteranthera limosa); assay: Test B flooded paddy test, visual rating; details: Heteranthera limosa, 360 h; Flood, 250 g ai/ha, applied to paddy water, rated after 13 to 15 d; read-out: Ducksalad plant response rating (0 to 100 scale, 0 is no effect, 100 is complete control)
Method in brief: as §2

[17] = system: barnyardgrass (Echinochloa crus-galli); assay: Test B flooded paddy test, visual rating; details: Echinochloa crus-galli, 360 h; Flood, 250 g ai/ha, applied to paddy water, rated after 13 to 15 d; read-out: Barnyardgrass plant response rating (0 to 100 scale, 0 is no effect, 100 is complete control)
Method in brief: as §2

SMILES: CCOC(=O)Oc1c(C)nn(C)c(=O)c1-c1c(C)ccc2sccc12 [Compound 30, 1,6-dihydro-1,3-dimethyl-5-(5-methylbenzo[b]thien-4-yl)-6-oxo-4-pyridazinyl ethyl carbonate]
- pest or weed control at 125 g/ha ([1]; 125 g ai/ha): 60%
- pest or weed control at 500 g/ha ([1]; 500 g ai/ha): 90%
- pest or weed control at 125 g/ha ([2]; 125 g ai/ha): 90%
- pest or weed control at 500 g/ha ([2]; 500 g ai/ha): 90%
- plant injury at 125 g/ha ([3]; 125 g ai/ha): 0%
- plant injury at 500 g/ha ([3]; 500 g ai/ha): 30%
- pest or weed control at 125 g/ha ([4]; 125 g ai/ha): 40%
- pest or weed control at 500 g/ha ([4]; 500 g ai/ha): 90%
- pest or weed control at 125 g/ha (kochia (Kochia scoparia) [5]; 125 g ai/ha): 90%
- pest or weed control at 500 g/ha (kochia (Kochia scoparia) [5]; 500 g ai/ha): 100%
- pest or weed control at 125 g/ha ([6]; 125 g ai/ha): 100%
- pest or weed control at 500 g/ha ([6]; 500 g ai/ha): 100%
- pest or weed control at 125 g/ha ([7]; 125 g ai/ha): 10%
- pest or weed control at 500 g/ha ([7]; 500 g ai/ha): 70%
- plant injury at 125 g/ha (corn (Zea mays); 125 g ai/ha): 20%
- plant injury at 500 g/ha (corn (Zea mays); 500 g ai/ha): 40%
- pest or weed control at 125 g/ha ([8]; 125 g ai/ha): 90%
- pest or weed control at 500 g/ha ([8]; 500 g ai/ha): 100%
- pest or weed control at 125 g/ha ([9]; 125 g ai/ha): 10%
- pest or weed control at 500 g/ha ([9]; 500 g ai/ha): 80%
- pest or weed control at 125 g/ha ([10]; 125 g ai/ha): 20%
- pest or weed control at 500 g/ha ([10]; 500 g ai/ha): 90%
- pest or weed control at 125 g/ha ([11]; 125 g ai/ha): 90%
- pest or weed control at 500 g/ha ([11]; 500 g ai/ha): 100%
- pest or weed control at 125 g/ha (kochia (Kochia scoparia) [12]; 125 g ai/ha): 10%
- pest or weed control at 500 g/ha (kochia (Kochia scoparia) [12]; 500 g ai/ha): 80%
- pest or weed control at 125 g/ha ([13]; 125 g ai/ha): 90%
- pest or weed control at 500 g/ha ([13]; 500 g ai/ha): 100%
- pest or weed control at 125 g/ha ([14]; 125 g ai/ha): 0%
- pest or weed control at 500 g/ha ([14]; 500 g ai/ha): 80%
- pest or weed control at 125 g/ha ([15]; 125 g ai/ha): 0%
- pest or weed control at 500 g/ha ([15]; 500 g ai/ha): 90%
- plant injury at 250 g/ha (rice (Oryza sativa)): 0%
- pest or weed control at 250 g/ha [16]: 0%
- pest or weed control at 250 g/ha [17]: 0%

From US10750743B2, “Pyridazinone herbicides” (E.I. DU PONT DE NEMOURS AND COMPANY, priority 2015, dated 2020)
